# Values quoted from earlier work in US11014971B2, “Peptibodies, compositions thereof, and methods of treating atrial fibrillation” (University of South Florida, priority 2016, dated 2021).
# Columns and labels:
# [1] = target: T1, IKACh (Homo sapiens, UniProt P48544+P48549)
# T1 sequence (P48549 1-501): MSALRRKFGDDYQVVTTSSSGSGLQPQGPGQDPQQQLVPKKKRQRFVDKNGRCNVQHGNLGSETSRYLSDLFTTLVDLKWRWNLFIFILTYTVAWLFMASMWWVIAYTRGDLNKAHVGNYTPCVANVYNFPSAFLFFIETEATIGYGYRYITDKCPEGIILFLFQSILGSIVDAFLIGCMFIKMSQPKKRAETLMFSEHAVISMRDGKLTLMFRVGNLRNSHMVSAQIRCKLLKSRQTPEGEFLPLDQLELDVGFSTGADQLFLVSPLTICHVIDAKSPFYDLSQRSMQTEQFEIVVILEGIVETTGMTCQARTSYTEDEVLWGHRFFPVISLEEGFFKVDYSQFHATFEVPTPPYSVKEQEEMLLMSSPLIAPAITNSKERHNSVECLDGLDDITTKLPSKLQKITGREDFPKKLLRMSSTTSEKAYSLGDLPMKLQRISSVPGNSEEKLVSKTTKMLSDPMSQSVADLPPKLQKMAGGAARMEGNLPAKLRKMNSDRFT
# T1 sequence (P48544 1-419): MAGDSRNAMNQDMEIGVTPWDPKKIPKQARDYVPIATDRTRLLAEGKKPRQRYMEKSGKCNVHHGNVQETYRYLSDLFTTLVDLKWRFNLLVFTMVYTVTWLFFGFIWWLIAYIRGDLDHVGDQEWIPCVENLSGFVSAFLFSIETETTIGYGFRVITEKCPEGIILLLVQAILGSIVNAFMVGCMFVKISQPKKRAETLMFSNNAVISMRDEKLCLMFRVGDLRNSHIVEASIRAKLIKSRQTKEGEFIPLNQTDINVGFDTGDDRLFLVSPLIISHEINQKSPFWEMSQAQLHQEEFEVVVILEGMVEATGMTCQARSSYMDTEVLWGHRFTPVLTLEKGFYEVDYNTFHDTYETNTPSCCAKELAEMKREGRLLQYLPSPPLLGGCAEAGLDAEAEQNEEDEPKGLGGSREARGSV
# [2] = tested on: paroxysmal AF and atrial flutter in patients
# [3] = tested on: atrial action potential in a normal heart
Compound,Concentrations at which IKACh is selectively inhibited [1],Reversion of atrial flutter in patients ([2]; atrial flutter),Reversion of paroxysmal AF in patients ([2]; paroxysmal AF),Effect on the action potential duration in normal atria [3]
Cc1cc(C(=O)N(C)[C@H](CN2CC(O)C2)C(C)C)ccc1F [AZD2927],submicromolar,failed to revert,,
Cc1cc(CO)nc2cc3c(cc12)OC(C)(C)[C@H](O)[C@H]3NCCc1ccccc1 [NTC-801],submicromolar,,failed to revert,
Tertiapin,,,,minimal effects
